Reference: patent EP1102770B1, “PARAMAGNETIC 3-,8-SUBSTITUTED DEUTEROPORPHYRIN DERIVATIVES, PHARMACEUTICAL PREPARATIONS CONTAINING SAME, METHOD FOR PRODUCING SAME AND THEIR USE IN MAGNETIC RESONANCE IMAGING OF NECROSIS AND INFARCTION” (SCHERING AKTIENGESELLSCHAFT, priority 1998, dated 2000)
“And” between values parts separate entries of the source, which are not always exact repeats. Identical values can stand only once.

Assays:
[1] = test system: Tieren mit induziertem Myocardinfarkt; assay: MRI experiments in animals with induced myocardial infarction (necrosis-selective enhancement); assay type: in vivo, Ratten (Han.Wistar, Schering SPF); settings: for Enhancement im nekrotischen Areal des Myocards: single i.v. dose 100 µmol Gd / kg KGW ca. 24 h after infarct induction, middle and late phase, 2.5 to ca. 24 h p. i., MRI 2 Tesla; for Abgrenzung des nekrotischen Areals im MRI-Experiment, Korrelation mit histologischer NBT ("Vital"-) Färbung: single i.v. dose 100 µmol Gd / kg KGW, heart prepared ca. 24 h p. i.
Protocol: Das nekroseselektive Enhancement wurde nach einmaliger intravenöser Applikation der Substanz aus Beispiel 1d an Tieren mit experimentell erzeugtem Myocardinfarkt im MRI Experiment untersucht. Die Induktion der Herzinfarkte erfolgte an narkotisierten (Domitor®/Dormicum®, i.m.) Ratten (Han.Wistar, Schering SPF, ca.300 g KGW) durch Okklusion der linken Coronararterie. Die Kontrastmittelapplikation (Dosis: 100 µmol Gd / kg KGW) erfolgte ca. 24 h nach der Infarktinduktion. Die Tiere wurden vor und bis 24 h nach KM-Applikation MR-tomographisch (SISCO SIS 85, 2 Tesla; SE-Sequenz, EKG-getriggert, TR: ca. 400 ms, TE: 10 ms, nt=4, ni=256, FOV: 7*7 cm, SD ≈ 3 mm, je 1 Schicht axial) untersucht. Ca. 24 h p. i. wurden die Tiere - im MRT - durch eine Narkotikaüberdosis getötet und zusätzlich ein MRI-Experiment am "frischtoten" Tier (--> keine Bewegungsartefakte) durchgeführt. Zur Verifizierung des Infarktes (Größe und Lage) wurde das Herz präpariert, in Scheiben geschnitten und anschließend eine NBT ("Vital-") Färbung durchgeführt. Vor KM-Applikation ist das infarzierte Areal nicht vom "normalen" Myocard zu unterscheiden, da sich beide Areale isointens darstellen (s. Abb.: 1a). Direkt nach der Substanzapplikation stellt sich der nicht-perfundierte Anteil des Myocards als hypointenses Areal dar (s. Abb.: 1b). Ab ca. 30 min p. i. steigt die Signalintensität im nicht-perfundierten Areal etwas an bzw. die Größe des abgegrenzten (Signalarmen) Areals nimmt ab (--> langsame Diffusion in die Nekrose).
Das nekroseselektive Enhancement wurde nach einmaliger intravenöser Applikation der Substanz aus Beispiel 2d an Tieren mit experimentell erzeugtem Myocardinfarkt im MRI Experiment untersucht. Die Induktion der Herzinfarkte erfolgte an narkotisierten (Domitor®/Dormicum®, i.m.) Ratten (Han.Wistar, Schering SPF, ca.300 g KGW) durch Okklusion der linken Coronararterie. Die Kontrastmittelapplikation (Dosis: 100 µmol Gd / kg KGW ) erfolgte ca. 24 h nach der Infarktinduktion. Die Tiere wurden vor und bis 3 h (kontinuierlich) sowie 24 h nach KM-Applikation MR-tomographisch (SISCO SIS 85, 2 Tesla; SE-Sequenz, EKG-getriggert, TR: ca. 400 ms, TE: 10 ms, nt=4, ni=256, FOV: 7*7 cm, SD ≈ 3 mm, je 1 Schicht axial) untersucht. Ca. 24 h p. i. wurden die Tiere - im MRT - durch eine Narkotikaüberdosis getötet und ein MRI-Experiment am "frischtoten" Tier (--> keine Bewegungsartefakte) durchgeführt. Zur Verifizierung des Infarktes (Größe und Lage) wurde das Herz präpariert, in Scheiben geschnitten und anschließend eine NBT (nitro blue tetrazolium chlorid) Färbung durchgeführt. Vor KM-Applikation ist das infarzierte Areal nicht vom "normalen" Myocard zu unterscheiden, da sich beide Areale isointens darstellen (s. Abb.: 2a). Direkt nach der Substanzapplikation stellt sich der nicht-perfundierte Anteil des Myocards als hypointenses Areal dar (s. Abb.: 2b). Ab ca. 30 min p. i. steigt die Signalintensität im nicht-perfundierten Areal etwas an bzw. die Größe des abgegrenzten (signalarmen) Areals nimmt ab (--> langsame Diffusion in die Nekrose).
Das nekroseselektive Enhancement wurde nach einmaliger intravenöser Applikation der Substanz aus Beispiel 4d an Tieren mit experimentell erzeugtem Myocardinfarkt im MRI Experiment untersucht. Die Induktion der Herzinfarkte erfolgte an narkotisierten (Domitor®/Dormicum®, i. m.) Ratten (Han. Wistar, Schering SPF, ca. 300 g KGW) durch Okklusion der linken Coronararterie. Die Kontrastmittelapplikation (Dosis: 100 µmol Gd / kg KGW) erfolgte ca. 24 h nach der Infarktinduktion. Die Tiere wurden vor und bis 3 h (kontinuierlich) sowie 24 h nach KM-Applikation MR-tomographisch (SISCO SIS 85, 2 Tesla; SE-Sequenz, EKG-getriggert, TR: ca. 400 ms, TE: 10 ms, nt=4, ni=256, FOV: 7*7 cm, SD ≈ 3 mm, je 1 Schicht axial) untersucht. Ca. 24 h p. i. wurden die Tiere - im MRT - durch eine Narkotikaüberdosis getötet und ein MRI-Experiment am "frischtoten" Tier (--> keine Bewegungsartefakte) durchgeführt. […]

[2] = test system: humanem Coloncarcinom (HT-29 P9); assay: Effect of light (ED50) on a tumour cell culture in the presence of porphyrins (phototoxicity); assay type: cell-based, human; settings: concentration at which about half of the cells are no longer vital, 3 days xenon lamp (8,5 k Lux, UV filter), 2 x 30 min daily, count on day 4
Protocol: In Kulturflaschen von 25 ml Inhalt wird eine Zellkultur von humanem Coloncarcinom (HT-29 P9) 3 Tage bei 37°C vermehrt. Die Kulturen werden in zwei Grupen aufgeteilt und mit Lösungen der Prüfsubstanzen (50 mmol Porphyrineinheit (PE) /l, verdünnt mit fötalem Kälberserum) in zunehmender Menge (0; 1,5; 5; 8,5; 12; 15,5; 19 µmol PE/l) versetzt. Die Proben werden drei Tage lang mit einer Xenon-Lampe (8,5 k Lux, UV-Filter) bestrahlt. Die erste Gruppe erhält täglich 2 Bestrahlungen von je 30 Minuten Dauer im Abstand von 4 Stunden. Die restliche Zeit bleibt sie im Dunkeln im Brutschrank. Die zweite Gruppe wird nicht belichtet und bleibt die gesamte Zeit im Dunkeln im Brutschrank. Am vierten Tag wird das Zellwachstum durch Lebend-Tot-Färbung und Zählung mit der Zählkammer bestimmt.
In der Tabelle ist die Konzentration angegeben, bei der etwa die Hälfte der Zellen nicht mehr vital ist.

[3] = Determination of relaxivity R1; assay type: physicochemical; settings: Wasser; 40°C; 0,47 Tesla; Minispec PC 20; n=3
Protocol: • Bestimmung der Relaxivity R1 [L·mmol^-1 ·s^-1] • Gerät: Minispec PC 20 • Messung bei 40°C; 0,47 Tesla • T1-Sequenz: 180°-TI-90°, Inversion Recovery

[4] = In vivo comparison of blood kinetics with Dy-DTPA; settings: for Blutkonzentrationen: rats, i.v. 82 µmol Gd/kg
[5] = Acute tolerance after single intravenous administration; assay type: in vivo, SPF-Mäuse (NMRI, Schering); settings: mouse, single i.v., observation 7 days
Protocol: Es soll die Akute Verträglichkeit der Titelverbindung aus Beispiel 2d nach einmaliger intravenöser Gabe an der Maus untersucht werden.
Testmethode: Methode KM D1, 5. Auflage Tiermaterial: SPF-Mäuse (NMRI, Schering), 18-22 g, f:m = 50:50 Injektionsgeschwindigkeit: 2 ml/min. Kriterium der Wirksamkeit: exitus letalis Beobachtungszeitraum: 7 Tage

[6] = plasma, rats n=3, i.v., 82 µmol Gd/kg (Verbindung 1), 103 µmol Dy/kg (Verbindung 2)

Substance | Enhancement im nekrotischen Areal des Myocards [1] | Abgrenzung des nekrotischen Areals im MRI-Experiment, Korrelation mit histologischer NBT ("Vital"-) Färbung [1] | ED50 [2] | Relaxivity R1 [3] [L/mmol/s] | Vd ss [4, 6] [L/kg] | α-t½ [4, 6] [min] | β-t½ [4, 6] | Blutkonzentrationen ([4]; after 120 min) | Blutkonzentrationen ([4]; after three minutes) | LD50 ([5]; 2 ml/min, value stated as to be expected) [mmol Gd/kg] | Lebern und Nieren aller überlebenden Tiere [5]
{mu-[{16,16'-[Chloroeisen(III)-7, 12-diethyl-3, 8, 13, 17-tetramethylporphyrin-2, 18-diyl]-bis[3, 6, 9-tris(carboxymethyl)-11,14-dioxo-3, 6, 9, 12, 13-pentaazahexadecanoato]}(8-)]}-digadolinato(2-) [Beispiel 1d] | deutliches Enhancement | korreliert sehr gut | > 1,25 mmol PE/l | 11.9 ± 1.0 | 0.08 ± 0.00 | 3.56 ± 1.01 | 173 min and 172.90 ± 38.76 min | 22-25 % der Dosis | 56-63 % der Dosis | – | –
{mu-[{16, 16'-[Chloromangan(III)-7, 12-diethyl-3, 8, 13, 17-tetramethylporphyrin-2, 18-diyl]-bis[3, 6, 9-tris(carboxymethyl)-11, 14-dioxo-3, 6, 9, 12, 13-pentaazahexadecanoato]}(8-)]}-digadolinato(2-),-Dinatrium [Beispiel 2d] | deutliches Enhancement | korreliert sehr gut | > 1,25 mmol PE/l | 9.3 ± 0.1 | – | – | – | – | – | ≥ 5 | unauffällig
{mu-[{16,16'-[Kupfer(II)-7, 12-diethyl-3, 8, 13, 17-tetramethylporphyrin-2,18-diyl]-bis[3, 6, 9-tris(carboxymethyl)-11, 14-dioxo-3, 6, 9, 12, 13-pentaazahexadecanoato]}(8-)]}-digadolinato(2-), Dinatrium [Beispiel 4d] | deutliches Enhancement | korreliert sehr gut | > 1,25 mmol PE/l | 11.0 ± 0.1 | – | – | – | – | – | – | –
{mu-[{16, 16'-(7, 12-Diethyl-3, 8, 13, 17-tetramethylporphyrin-2, 18-diyl]-bis[3,6,9-tris(carboxymethyl)-11, 14-dioxo-3, 6, 9,12, 13-pentaazahexadecanoato]}(8-)]}-digadolinato(2-),-Dinatrium [IV, reference compound] | – | – | 6,4·10^-3 mmol PE/l | 9.2 ± 0.1 | – | – | – | – | – | – | –
